The assay deals with Glutamate receptor ionotropic, NMDA 2B (Rattus norvegicus, UniProt Q00960). The experiment in a line: Displacement of [3H]ifenprodil from Wistar rat GluN2B receptor after 2 hrs by liquid scintillation spectrometry. On the technique in general: In a radioligand displacement assay an active substance lowers the binding of a labelled ligand.
Sequence of Glutamate receptor ionotropic, NMDA 2B (Q00960 whole entry): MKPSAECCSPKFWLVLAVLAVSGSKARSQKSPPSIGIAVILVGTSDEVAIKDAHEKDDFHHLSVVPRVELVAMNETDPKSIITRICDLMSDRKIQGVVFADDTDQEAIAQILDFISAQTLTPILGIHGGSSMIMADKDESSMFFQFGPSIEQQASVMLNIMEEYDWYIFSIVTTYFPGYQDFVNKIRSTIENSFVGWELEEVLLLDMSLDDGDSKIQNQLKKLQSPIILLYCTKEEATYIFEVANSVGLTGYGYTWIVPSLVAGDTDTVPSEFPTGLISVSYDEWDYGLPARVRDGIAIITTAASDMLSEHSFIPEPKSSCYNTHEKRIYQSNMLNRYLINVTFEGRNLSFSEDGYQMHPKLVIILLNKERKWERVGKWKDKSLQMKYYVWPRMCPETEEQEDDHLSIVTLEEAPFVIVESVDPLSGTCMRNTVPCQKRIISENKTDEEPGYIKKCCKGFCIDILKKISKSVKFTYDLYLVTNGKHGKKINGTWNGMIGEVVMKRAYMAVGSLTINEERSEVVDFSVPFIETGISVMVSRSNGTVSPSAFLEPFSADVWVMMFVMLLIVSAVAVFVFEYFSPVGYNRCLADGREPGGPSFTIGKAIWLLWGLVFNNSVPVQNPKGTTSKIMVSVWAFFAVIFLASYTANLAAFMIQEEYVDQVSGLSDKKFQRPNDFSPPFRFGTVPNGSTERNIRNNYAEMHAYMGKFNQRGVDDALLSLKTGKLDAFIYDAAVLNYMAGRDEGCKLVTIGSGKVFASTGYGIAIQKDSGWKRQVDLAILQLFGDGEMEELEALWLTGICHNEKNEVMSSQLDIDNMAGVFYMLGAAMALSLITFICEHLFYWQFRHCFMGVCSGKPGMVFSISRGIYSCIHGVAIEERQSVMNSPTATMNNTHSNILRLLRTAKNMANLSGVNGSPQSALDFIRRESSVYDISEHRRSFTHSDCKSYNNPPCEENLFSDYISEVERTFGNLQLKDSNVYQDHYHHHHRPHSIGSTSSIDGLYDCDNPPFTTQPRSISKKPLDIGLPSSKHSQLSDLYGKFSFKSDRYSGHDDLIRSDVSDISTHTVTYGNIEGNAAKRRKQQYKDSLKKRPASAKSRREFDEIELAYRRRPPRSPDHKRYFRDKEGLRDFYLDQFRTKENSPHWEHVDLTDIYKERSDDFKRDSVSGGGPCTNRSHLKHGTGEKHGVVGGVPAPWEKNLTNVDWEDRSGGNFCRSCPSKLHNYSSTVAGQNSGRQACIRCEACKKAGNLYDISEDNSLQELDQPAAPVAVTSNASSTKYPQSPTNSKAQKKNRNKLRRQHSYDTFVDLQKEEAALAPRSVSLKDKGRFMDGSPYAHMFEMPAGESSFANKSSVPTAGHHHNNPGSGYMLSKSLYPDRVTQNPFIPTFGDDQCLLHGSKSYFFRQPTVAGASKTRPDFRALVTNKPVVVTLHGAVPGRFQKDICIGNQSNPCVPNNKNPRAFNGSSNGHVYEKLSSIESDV
For orientation: Ki means the equilibrium dissociation constant of an inhibitor or competing ligand from its target. Lower therefore signals tighter binding. `COc1cccc(CNC(=N)c2ccc(OC(F)(F)F)cc2)c1OC` yielded an inhibitory constant (Ki) of 303 nM.

Molecule `N=C(NCc1cccc(F)c1)c1ccc(OC(F)(F)F)cc1` gave an inhibitory constant (Ki) of 2.86 nM.

As for `COc1ccc(CNC(=N)c2ccc(OC(F)(F)F)cc2)c(OC)c1`, the Ki amounted to 16.2 nM.

Turning to `NC(=NCc1cc(F)cc(F)c1)c1ccc(OC(F)(F)F)cc1`, the Ki worked out at 3.58 nM.

Molecule `COc1ccc(OC)c(CNC(=N)c2ccc(OC(F)(F)F)cc2)c1` returned a Ki of 4.29 nM.

With `COc1cc(CNC(=N)c2ccc(OC(F)(F)F)cc2)cc(OC)c1`, the Ki came to 22.9 nM. Against the preceding molecule, the Ki is about 5.3-fold higher.

Turning to `COc1cc(CN=C(N)c2ccc(OC(F)(F)F)cc2)cc(OC)c1OC`, the affinity, expressed as Ki, was 1140 nM.

As to `NC(=NCc1ccccc1C(F)(F)F)c1ccc(OC(F)(F)F)cc1`, the affinity, expressed as Ki, was 8.09 nM.

On to `NC(=NCC12CC3CC(CC(C3)C1)C2)c1ccc(OC(F)(F)F)cc1`, for which the inhibition constant Ki came to 4810 nM. Against the preceding molecule, the Ki is about 590-fold higher.

For `N=C(NCc1ccc2c(c1)OCO2)c1ccc(OC(F)(F)F)cc1`, the Ki stood at 26.3 nM.

Molecule `N=C(NCc1ccc(F)c(F)c1)c1ccc(OC(F)(F)F)cc1` showed an inhibition constant Ki of 8.25 nM.

For `N=C(NCC12C3C4C5C3C1C5C42)c1ccc(OC(F)(F)F)cc1` (stereo not drawn), the Ki turned out to be 150 nM.

With `COc1ccccc1C/N=C(\N)c1ccc(OC(F)(F)F)cc1`, the Ki stood at 2.09 nM.

Values taken from ChEMBL document CHEMBL3112562, “Structure-activity relationships of N-substituted 4-(trifluoromethoxy)benzamidines with affinity for GluN2B-containing NMDA receptors” (Bioorg Med Chem Lett, 2014).
